Measured values: patent publication US12258339B2, “Macrocyclic complexes of alpha-emitting radionuclides and their use in targeted radiotherapy of cancer” (Cornell University, priority 2018, dated 2025)

Test: In vivo biodistribution of ^225Ac complexes of macropa and DOTA and of ^225Ac(NO3)3 in mice
Set-up: species or system C57BL/6 mice
Experimental: In Vivo Biodistribution of ^225Ac Complexes of Macropa and DOTA. All experiments were approved by the Institutional Animal Care Committee (IACC) of the University of British Columbia and were performed in accordance with the Canadian Council on Animal Care Guidelines. A total of 9 female C57BL/6 mice (6-8 weeks old, 20-25 g) were used for the biodistribution study of each radiometal complex, n=3 for each time point.
Macropa (100 μL of a 1 mg/mL solution in NH4OAc) was diluted with 387 μL of NH4OAc (1 M, pH 7), and an aliquot (203 μL) of ^225Ac(NO3)3 (˜157 kBq) was then added; the pH of this solution was adjusted to 6.5-7 by the addition of 1 M NaOH (210 μL, trace metal grade). After 5 min at ambient temperature, the reaction solution was analyzed by TLC (0.4 M pH 4 sodium citrate as the eluent), which confirmed >95% radiochemical yield. The reaction was allowed to proceed overnight, and the radiochemical yield was again confirmed to be >95% the following morning. At this time, mice were anesthetized by 2% isoflurane, and approximately 100 μL (10-15 kBq) of the [^225Ac(macropa)]^+ complex were injected into the tail vein of each mouse. After injection, mice were allowed to recover and roam freely in their cages, and were euthanized by CO2 inhalation at 15 min, 1 h, or 5 h (n=3 at each time point) post-injection. Blood was collected by cardiac puncture and placed into an appropriate test tube for scintillation counting. Tissues collected included heart, liver, kidneys, lungs, small intestine, large intestine, brain, bladder, spleen, stomach, pancreas, bone, thyroid, tail, urine, and feces. Tissues were weighed and then counted with a calibrated gamma counter (Packard, Cobra II model 5002) using three energy windows: 60-120 keV (window A), 180-260 keV (window B), and 400-480 keV (window C). Counting was performed both immediately after sacrifice and after 7 days; counts were decay corrected from the time of injection and then converted to the percentage of injected dose (% ID) per gram of tissue (% ID/g). […]
The biodistribution studies of [^225Ac(DOTA)]^− and ^225Ac(NO3)3 were carried out as described above for [^225Ac(macropa)]^+, with the following modifications. [^225Ac(DOTA)^− was prepared by adding ^225Ac(NO3)3 (338 μL, 1.1 MBq) to a solution of DOTA (100 μg, 20 mg/mL in H2O) in NH4OAc (467 μL, 0.15 M, pH 7). The pH of the solution was adjusted to 7 using NH4OAc (150 μL, 1 M, pH 7) and the solution was heated at 85° C. for 45 min. RCY>99% was confirmed by TLC as described above. [^225Ac(DOTA)]^− was diluted with saline to a final concentration of 0.05 MBq/100 μL, and 100 μL were injected into each mouse. ^225Ac(NO3)3 (˜58 μL, 0.4 MBq) was diluted and injected in the same manner as [^225Ac(DOTA)]^−. One mouse that was to be euthanized at the 5 h time point in the [^225Ac(DOTA)]^− study died shortly after injection. In the same manner, one mouse that was to be euthanized at the 1 h time point in the ^225Ac(NO3)3 study died.
The in vivo stability [^225Ac(macropa)]^+ was examined by comparing its biodistribution to those of ^225Ac(NO3)3 and [^225Ac(DOTA)]^−. C57BL/6 mice were injected via tail vein with 10-50 kBq of each radiometal complex and were sacrificed after 15 min, 1 h, or 5 h. The amount of ^225Ac retained in each organ was quantified by gamma counting and reported as the percent of injected dose per gram of tissue (% ID/g). The results of these studies are compiled in Tables 1-3. Inadequate stability of an ^225Ac complex leading to the loss of radioisotope in vivo is manifested by the accumulation of ^225Ac in the liver, spleen, and bone of mice.^[11,12,32] […] The biodistribution profile of [^225Ac(macropa)]^+ (FIG. 3B) differs markedly from that of ^225Ac(NO3)3. […] Its biodistribution profile was similar to that of [^225Ac(DOTA)]^− (FIG. 3C), which has been previously shown to retain ^225Ac in vivo.^[7]

[1] = 15 min after i.v. injection, energy window A (60-120 keV)
[2] = 15 min after i.v. injection, energy window C (400-480 keV)
[3] = 1 h after i.v. injection, energy window A (60-120 keV)
[4] = 1 h after i.v. injection, energy window B (180-260 keV)
[5] = 1 h after i.v. injection, energy window C (400-480 keV)
[6] = 5 h after i.v. injection, energy window A (60-120 keV)
[7] = 5 h after i.v. injection, energy window B (180-260 keV)
[8] = 5 h after i.v. injection, energy window C (400-480 keV)

O=C([O-])c1cccc(CN2CCOCCOCCN(Cc3cccc(C(=O)[O-])n3)CCOCCOCC2)n1.[225Ac+3] [[^225Ac(macropa)]^+]
Organ distribution: brain [1]: 0.26 % ID/g
Organ distribution: feces [1]: 0.91 % ID/g
Organ distribution: large intestines [1]: 2.40 % ID/g
Organ distribution: brain (15 min after i.v. injection, energy window B (180-260 keV)): 0.23 % ID/g
Organ distribution: brain [2]: 0.17 % ID/g
Organ distribution: pancreas [2]: 3.00 % ID/g
Organ distribution: blood [3]: 0.40 % ID/g
Organ distribution: bone (femur + joint) [3]: 0.31 % ID/g
Organ distribution: brain [3]: 0.12 % ID/g
Organ distribution: feces [3]: 0.28 % ID/g
Organ distribution: heart [3]: 0.31 % ID/g
Organ distribution: large intestines [3]: 0.36 % ID/g
Organ distribution: liver [3]: 0.75 % ID/g
Organ distribution: lungs [3]: 0.51 % ID/g
Organ distribution: pancreas [3]: 0.19 % ID/g
Organ distribution: small intestines [3]: 1.10 % ID/g
Organ distribution: spleen [3]: 0.51 % ID/g
Organ distribution: stomach [3]: 0.41 % ID/g
Organ distribution: blood [4]: 0.39 % ID/g
Organ distribution: bone (femur + joint) [4]: 0.17 % ID/g
Organ distribution: brain [4]: 0.12 % ID/g
Organ distribution: feces [4]: 0.27 % ID/g
Organ distribution: heart [4]: 0.20 % ID/g
Organ distribution: large intestines [4]: 0.22 % ID/g
Organ distribution: liver [4]: 0.70 % ID/g
Organ distribution: lungs [4]: 0.54 % ID/g
Organ distribution: pancreas [4]: 0.12 % ID/g
Organ distribution: small intestines [4]: 0.94 % ID/g
Organ distribution: spleen [4]: 0.23 % ID/g
Organ distribution: stomach [4]: 0.33 % ID/g
Organ distribution: thyroids [4]: 0.10 % ID/g
Organ distribution: bladder [5]: 9.00 % ID/g
Organ distribution: blood [5]: 0.54 % ID/g
Organ distribution: bone (femur + joint) [5]: 0.70 % ID/g
Organ distribution: brain [5]: 0.23 % ID/g
Organ distribution: feces [5]: 0.69 % ID/g
Organ distribution: heart [5]: 0.23 % ID/g
Organ distribution: large intestines [5]: 0.79 % ID/g
Organ distribution: lungs [5]: 0.84 % ID/g
Organ distribution: pancreas [5]: 0.43 % ID/g
Organ distribution: spleen [5]: 0.48 % ID/g
Organ distribution: stomach [5]: 0.17 % ID/g
Organ distribution: blood [6]: 0.01 % ID/g
Organ distribution: bone (femur + joint) [6]: 0.05 % ID/g
Organ distribution: brain [6]: 0.02 % ID/g
Organ distribution: heart [6]: 0.10 % ID/g
Organ distribution: kidneys [6]: 0.74 % ID/g
Organ distribution: large intestines [6]: 0.49 % ID/g
Organ distribution: liver [6]: 0.39 % ID/g
Organ distribution: lungs [6]: 0.01 % ID/g
Organ distribution: pancreas [6]: 0.10 % ID/g
Organ distribution: small intestines [6]: 0.29 % ID/g
Organ distribution: spleen [6]: 0.11 % ID/g
Organ distribution: stomach [6]: 0.01 % ID/g
Organ distribution: tail [6]: 0.14 % ID/g
Organ distribution: thyroids [6]: 0.10 % ID/g
Organ distribution: blood [7]: 0.00 % ID/g
Organ distribution: bone (femur + joint) [7]: 0.02 % ID/g
Organ distribution: brain [7]: −0.01 % ID/g
Organ distribution: heart [7]: −0.04 % ID/g
Organ distribution: kidneys [7]: 0.78 % ID/g
Organ distribution: large intestines [7]: 0.45 % ID/g
Organ distribution: liver [7]: 0.36 % ID/g
Organ distribution: lungs [7]: −0.05 % ID/g
Organ distribution: pancreas [7]: −0.12 % ID/g
Organ distribution: small intestines [7]: 0.29 % ID/g
Organ distribution: spleen [7]: 0.09 % ID/g
Organ distribution: stomach [7]: 0.04 % ID/g
Organ distribution: tail [7]: 0.13 % ID/g
Organ distribution: blood [8]: 0.04 % ID/g
Organ distribution: bone (femur + joint) [8]: 0.08 % ID/g
Organ distribution: brain [8]: −0.01 % ID/g
Organ distribution: heart [8]: 0.28 % ID/g
Organ distribution: large intestines [8]: 0.68 % ID/g
Organ distribution: liver [8]: 0.55 % ID/g
Organ distribution: lungs [8]: 0.15 % ID/g
Organ distribution: pancreas [8]: 0.13 % ID/g
Organ distribution: small intestines [8]: 0.42 % ID/g
Organ distribution: spleen [8]: 0.43 % ID/g
Organ distribution: stomach [8]: 0.13 % ID/g
Organ distribution: tail [8]: 0.28 % ID/g
blood clearance and excretion (in words) (i.v. injection, up to 5 h): rapidly cleared from mice
organ accumulation (in words) (i.v. injection, up to 5 h): did not accumulate in any organ
